pIC50: −log10 of the molar value. Values after ≈ are worked out from the molar mass of the structure shown. Where two headings read alike, the source gives them in different places.
How the values were obtained:
Staphylococcus aureus = tested on: Staphylococcus aureus; parameters: method as in earlier work; conditions: 6 vs 3, 7 vs 4; cited from earlier work
B. thuringiensis BT01 = experiment: Antibacterial activity, broth dilution MIC; assay type: cell-based; conditions: Bacillus thuringiensis, BT01, read-out: MIC values, BT
Method: (§1) The antibacterial activities of compounds 1–13 were assessed using twofold serial dilutions of antibacterial agents in MH broth, according to previously reported standard methods provided by Clinical and Laboratory Standards Institute (CLSI)[30]. These compounds were tested for their antibacterial activities against Bacillus subtilis BS01, Staphyloccocus aureus ATCC 29213, Staphyloccocus aureus 745524, Bacillus thuringiensis BT01, and Enterococcus faecalis ATCC 29212 using a broth dilution method.

E. faecalis ATCC 29212 = experiment: Antibacterial activity, broth dilution MIC; assay type: cell-based; conditions: Enterococcus faecalis, ATCC29212, read-out: MIC values, EF
Method: as §1

[1] = tested on: Staphylococcus aureus 745524; experiment: Antibacterial activity, broth dilution MIC; assay type: cell-based; conditions: Staphylococcus aureus, 745524, read-out: MIC values, SA2
Method: as §1

B. subtilis BS01 = experiment: Antibacterial activity, broth dilution MIC; assay type: cell-based; conditions: Bacillus subtilis, BS01, read-out: MIC values, BS
Method: as §1

[2] = tested on: Staphylococcus aureus ATCC 29213; experiment: Antibacterial activity, broth dilution MIC; assay type: cell-based; conditions: Staphylococcus aureus, ATCC29213, read-out: MIC values, SA1
Method: as §1

CytA = experiment: In vitro CytA enzymatic activity assay (HPLC analysis); assay type: biochemical, Streptomyces sp. SCSIO 1666; conditions: absence of O2 (anaerobic); 25 μM substrate, 0.5 μM CytA, 20 μM NADH, 37 °C
Description: To explore the biochemical activity of CytA in vitro, the cytA gene was cloned into the NdeI and EcoRI sites of the pET28a (+) vector and the resulting vector was transformed into E. coli BL21(DE3) using previously described methods. CytA was overexpressed as an N-terminally His6-tagged soluble protein and purified to homogeneity by Ni affinity chromatography (Fig. 2a). […] The activity of CytA was first investigated using substrates 6–9 and ε-rhodomycinone (10) under aerobic conditions. Reactions with CytA were conducted at 37 °C in a volume of 100 μL consisting of 50 mM Tris-Cl (pH 8.0), 25 μM substrate, 0.5 μM CytA, and 20 μM NADH. Reactions with boiled CytA served as controls; all reactions were carried out in parallel to ensure reaction consistency. Reactions were terminated by addition of twofold volume of methanol. As expected, CytA failed, under aerobic conditions to modify any of the substrates 6–10. […] On the heels of this finding we then determined the kinetic parameters of CytA using 6 and 7 as substrates.
Enzymatic reactions were carried out under anaerobic conditions in an anaerobic workstation (Don Whitley Scientific A45) containing a gas phase of N2/H2/CO2 (80:10: 10%, by vol.). ^1H, ^13C, and 2D (COSY, HMQC, HMBC and NOESY) NMR spectra were recorded at 25 °C with an Avance 700 MHz spectrometer instruments (Bruker). […]

[3] = tested on: HeLa human cervical carcinoma cell line; experiment: Cytotoxic activity, MTT method; assay type: cell-based; conditions: read-out: Cytotoxic activities IC50, HeLa
Description: (§2) All data were obtained in triplicate and are presented as means.

[4] = tested on: MCF-7 human breast adenocarcinoma cell line; experiment: Cytotoxic activity, MTT method; assay type: cell-based; conditions: MCF7, read-out: Cytotoxic activities IC50, MCF-7
Description: as §2

[5] = tested on: HepG2 human hepatocellular carcinoma cell line; experiment: Cytotoxic activity, MTT method; assay type: cell-based; conditions: HepG2, read-out: Cytotoxic activities IC50, HepG2
Description: as §2

[6] = tested on: MDA-MB-468 human triple negative breast adenocarcinoma cell line; experiment: Cytotoxic activity, MTT method; assay type: cell-based; conditions: MDA-MB-468, read-out: Cytotoxic activities IC50, MDA-MB-468
Description: as §2

[7] = tested on: A549 human lung cancer cell line; experiment: Cytotoxic activity, MTT method; assay type: cell-based; conditions: A549, read-out: Cytotoxic activities IC50, A549
Description: as §2

[8] = tested on: MDA-MB-231 human triple negative breast adenocarcinoma cell line; experiment: Cytotoxic activity, MTT method; assay type: cell-based; conditions: MDA-MB-231, read-out: Cytotoxic activities IC50, MDA-MB-231
Description: as §2

[9] = tested on: RKO human colorectal carcinoma cell line; experiment: Cytotoxic activity, MTT method; assay type: cell-based; conditions: read-out: Cytotoxic activities IC50, RKO
Description: as §2

[10] = Cytotoxic activity, MTT method; assay type: cell-based; conditions: human
Description: as §2

[11] = Huvec-12 normal cell line, read-out: Cytotoxic activities IC50, Huvec-12
[12] = L02 normal cell line, read-out: Cytotoxic activities IC50, L02

Q: Which “fold more active against Staphylococcus aureus than reduced congeners 3 and 4, respectively” value (Staphylococcus aureus) does the source give for `CC[C@@]1(O)C[C@H](O[C@H]2C[C@H](N(C)C)[C@@H](O[C@H]3C[C@H](O)[C@@H](O[C@H]4CC[C@H](O)[C@H](C)O4)[C@H](C)O3)[C@H](C)O2)c2c(O)c3c(c(O)c2[C@H]1O[C@H]1C[C@H](N(C)C)[C@@H](O[C@H]2CC[C@H](O[C@H]4CC[C@H](O)[C@H](C)O4)[C@H](C)O2)[C@H](C)O1)C(=O)c1cccc(O)c1C3=O` [Compound 6, cosmomycin C] here?
A: The value was over 100 fold.

Q: And the MIC (B. thuringiensis BT01)?
A: The MIC was 0.125 µg/mL (≈ 0.107 µM).

Q: What about the MIC (E. faecalis ATCC 29212) of the same compound?
A: Its MIC is 0.001 µg/mL (≈ 0.000852 µM).

Q: And the MIC [1]?
A: Its MIC is 0.005 µg/mL (≈ 0.00426 µM).

Q: And the MIC (B. subtilis BS01)?
A: The MIC was 0.06 µg/mL (≈ 0.0511 µM).

Q: And the MIC [2]?
A: The MIC was 0.03 µg/mL (≈ 0.0256 µM).

Q: What about the “conversion by CytA (C-7 reduction/deglycosylation)” value (CytA) of the same compound?
A: Its value is “readily convert”.

Q: And the pIC50 [3]?
A: Its pIC50 is 7.77.

Q: What about the pIC50 [4] of the same compound?
A: Its pIC50 is 6.57.

Q: What about the pIC50 [5] of the same compound?
A: The pIC50 was 7.62.

Q: And the pIC50 [6]?
A: Its pIC50 is 6.30.

Q: And the pIC50 [7]?
A: Its pIC50 is 7.46.

Q: And the pIC50 [8]?
A: The pIC50 was 6.19.

Q: And the pIC50 [9]?
A: The pIC50 was 7.77.

Q: What about the pIC50 [10, 11] of the same compound?
A: Its pIC50 is 6.54.

Q: And the pIC50 [10, 12]?
A: Its pIC50 is 7.00.

Q: What does the source list for `CC[C@@]1(O)C[C@H](O[C@H]2C[C@H](N(C)C)[C@H](O[C@H]3C[C@H](O)[C@H](O[C@H]4CC[C@H](O)[C@H](C)O4)[C@H](C)O3)[C@H](C)O2)c2c(O)c3c(c(O)c2[C@H]1O[C@H]1C[C@H](N(C)C)[C@H](O[C@H]2C[C@H](O)[C@H](O[C@H]4CC[C@H](O)[C@H](C)O4)[C@H](C)O2)[C@H](C)O1)C(=O)c1cccc(O)c1C3=O` [Compound 7, cosmomycin D]?
A: fold more active against Staphylococcus aureus than reduced congeners 3 and 4, respectively (Staphylococcus aureus): > 100 fold; MIC (B. thuringiensis BT01): 0.125 µg/mL (≈ 0.105 µM); MIC (E. faecalis ATCC 29212): 0.002 µg/mL (≈ 0.00168 µM); MIC [1]: 0.005 µg/mL (≈ 0.0042 µM); MIC (B. subtilis BS01): 0.03 µg/mL (≈ 0.0252 µM); MIC [2]: 0.01 µg/mL (≈ 0.00841 µM); conversion by CytA (C-7 reduction/deglycosylation) (CytA): readily convert; pIC50 [3]: 6.96; pIC50 [4]: 6.29; pIC50 [5]: 7.51; pIC50 [6]: 5.74; pIC50 [7]: 7.72; pIC50 [8]: 6.18; pIC50 [9]: 7.00; pIC50 [10, 11]: 6.52; pIC50 [10, 12]: 6.89
